Broadly, the IC50 is the concentration needed to halve the response being measured. Broadly, the pIC50 is the IC50 on a negative log10 scale, so that one unit is a factor of ten.

This assay deals with TARP γ8 dependent AMPA receptor (GRIA1o-CACNG8 fusion construct) (Homo sapiens (Human), UniProt P42261+Q8WXS5). Nature of the assay: Calcium flux assay (FLIPR), inhibition of glutamate response of GluA1o-γ8 channel. Conditions: HEK293 cells stably expressing GRIA1o-CACNG8 fusion; calcium flux after 15 μM glutamate; negative log of the IC50 in molar. It counts as cell-based. The method, boiled down:
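HEK293 clonal line stably expressing a GRIA1o-CACNG8 fusion (1:1 GluA1o:γ8), loaded with Calcium-5/6 dye plus compound in HEPES buffer pH 7.4. FLIPR calcium flux read after 15 μM glutamate; normalized to no-compound and 10 μM CP465022 controls. Four-parameter logistic fit gives IC50, reported as pIC50.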
For orientation: Calcium flux is commonly read through the fluorescence of an indicator in the cells.

Sequence of TARP γ8 dependent AMPA receptor (GRIA1o-CACNG8 fusion construct) (P42261 other isoform, or with tags, fused parts or gaps): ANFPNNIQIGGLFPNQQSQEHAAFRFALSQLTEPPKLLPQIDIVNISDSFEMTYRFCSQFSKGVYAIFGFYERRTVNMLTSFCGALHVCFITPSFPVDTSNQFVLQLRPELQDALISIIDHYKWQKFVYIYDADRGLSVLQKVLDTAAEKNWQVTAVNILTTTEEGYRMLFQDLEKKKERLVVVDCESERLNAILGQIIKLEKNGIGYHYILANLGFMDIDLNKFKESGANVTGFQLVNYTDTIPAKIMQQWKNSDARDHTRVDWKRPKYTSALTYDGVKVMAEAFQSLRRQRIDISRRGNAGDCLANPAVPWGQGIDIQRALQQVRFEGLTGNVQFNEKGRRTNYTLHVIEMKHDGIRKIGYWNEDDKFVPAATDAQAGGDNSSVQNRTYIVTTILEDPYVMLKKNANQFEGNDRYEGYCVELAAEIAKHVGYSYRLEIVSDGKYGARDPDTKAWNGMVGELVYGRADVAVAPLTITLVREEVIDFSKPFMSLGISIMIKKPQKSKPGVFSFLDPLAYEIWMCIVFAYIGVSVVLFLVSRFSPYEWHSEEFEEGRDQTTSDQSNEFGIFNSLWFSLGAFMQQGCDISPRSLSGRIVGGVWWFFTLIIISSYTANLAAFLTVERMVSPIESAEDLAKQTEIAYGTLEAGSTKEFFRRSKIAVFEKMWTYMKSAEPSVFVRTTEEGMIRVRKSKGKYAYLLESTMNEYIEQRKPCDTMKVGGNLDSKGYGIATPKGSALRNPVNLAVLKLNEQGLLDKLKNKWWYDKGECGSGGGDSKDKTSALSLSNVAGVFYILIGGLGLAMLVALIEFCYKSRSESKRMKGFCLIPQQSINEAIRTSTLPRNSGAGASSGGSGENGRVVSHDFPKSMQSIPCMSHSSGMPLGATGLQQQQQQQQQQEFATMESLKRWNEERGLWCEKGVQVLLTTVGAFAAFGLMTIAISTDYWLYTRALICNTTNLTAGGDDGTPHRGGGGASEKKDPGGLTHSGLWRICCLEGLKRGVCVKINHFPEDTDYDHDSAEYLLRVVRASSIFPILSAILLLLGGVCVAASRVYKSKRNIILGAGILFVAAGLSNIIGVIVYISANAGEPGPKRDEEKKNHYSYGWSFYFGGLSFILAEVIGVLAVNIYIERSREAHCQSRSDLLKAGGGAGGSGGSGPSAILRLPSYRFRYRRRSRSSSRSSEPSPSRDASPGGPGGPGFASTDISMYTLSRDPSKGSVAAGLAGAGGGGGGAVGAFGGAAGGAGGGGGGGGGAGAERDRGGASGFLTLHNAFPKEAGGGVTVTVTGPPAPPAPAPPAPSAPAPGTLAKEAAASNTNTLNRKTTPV

`CCCc1nc2c(Cl)cc(C(F)(F)F)c(-c3cc(Cl)c4c(c3)CC(=O)N4)n2n1` [Example 97, 7-Chloro-5-(8-chloro-2-propyl-6-(trifluoromethyl)-[1,2,4]triazolo[1,5-a]pyridin-5-yl)indolin-2-one]: the concentration for half-maximal inhibition (IC50) was 0.501 nM.
Regarding `CCCc1nc2c(Cl)cc(C(F)(F)F)c(-c3cc(C)c4c(c3)CC(=O)N4)n2n1` [Example 98, 5-(8-Chloro-2-propyl-6-(trifluoromethyl)-[1,2,4]triazolo[1,5-a]pyridin-5-yl)-7-methylindolin-2-one], the IC50 is 0.794 nM.
With `Cc1cc(-c2c(C(F)(F)F)cc(C)c3nc(C4CC4)nn23)cc2c1NC(=O)C2` [Example 99, 5-(2-Cyclopropyl-8-methyl-6-(trifluoromethyl)-[1,2,4]triazolo[1,5-a]pyridin-5-yl)-7-methylindolin-2-one], the half-maximal inhibitory concentration (IC50) is 0.251 nM.
On to `CCc1nc2c(C)cc(C(F)(F)F)c(-c3cc(Cl)c4c(c3)CC(=O)N4)n2n1` [Example 100, 7-Chloro-5-(2-ethyl-8-methyl-6-(trifluoromethyl)-[1,2,4]triazolo[1,5-a]pyridin-5-yl)indolin-2-one], for which the IC50 was 0.631 nM.
Regarding `CCc1nc2c(C)cc(C(F)(F)F)c(-c3cc(C(F)(F)F)c4[nH]ncc4c3)n2n1` [Example 101, 2-Ethyl-8-methyl-6-(trifluoromethyl)-5-(7-(trifluoromethyl)-1H-indazol-5-yl)-[1,2,4]triazolo[1,5-a]pyridine], the concentration for half-maximal inhibition (IC50) was 0.316 nM.
For `CCc1nc2c(C)cc(C(F)(F)F)c(-c3cc4c(c(C(F)(F)F)c3)NC(=O)C4)n2n1` [Example 102, 5-(2-Ethyl-8-methyl-6-(trifluoromethyl)-[1,2,4]triazolo[1,5-a]pyridin-5-yl)-7-(trifluoromethyl)indolin-2-one], the IC50 is 1.58 nM.
The same measure, in the same setting: the same measure for `Cc1cc(C(F)(F)F)c(-c2cc(Cl)c3c(c2)CC(=O)N3)n2nc(C(F)(F)F)nc12` [Example 103]: 0.158 nM.
On to `CCc1cc(-c2c(C(F)(F)F)cc(C)c3nc(C(F)(F)F)nn23)cc2c1NC(=O)C2` [Example 104, 7-Ethyl-5-(8-methyl-2,6-bis(trifluoromethyl)-[1,2,4]triazolo[1,5-a]pyridin-5-yl)indolin-2-one], for which the half-inhibitory concentration (IC50) is 0.158 nM.
For `Cc1cc(-c2c(C(F)(F)F)cc(C)c3nc(C(F)(F)F)nn23)cc2c1NC(=O)C2` [Example 105, 7-Methyl-5-(8-methyl-2,6-bis(trifluoromethyl)-[1,2,4]triazolo[1,5-a]pyridin-5-yl)indolin-2-one], the IC50 was 0.316 nM.
With `COc1cc(-c2c(C(F)(F)F)cc(C)c3nc(C(F)(F)F)nn23)cc2c1NC(=O)C2` [Example 106, 7-Methoxy-5-(8-methyl-2,6-bis(trifluoromethyl)-[1,2,4]triazolo[1,5-a]pyridin-5-yl)indolin-2-one], the IC50 was 1.26 nM.
On the same count and under the same terms, then `Cc1cc(-c2c(C(F)(F)F)cc(C)c3nc(C(F)(F)F)nn23)cc2cn[nH]c12` [Example 107, 8-Methyl-5-(7-methyl-1H-indazol-5-yl)-2,6-bis(trifluoromethyl)-[1,2,4]triazolo[1,5-a]pyridine], with 0.501 nM; and `Cc1cc(C(F)(F)F)c(-c2cc(C#N)c3c(c2)CC(=O)N3)n2nc(C(F)(F)F)nc12` [Example 108, 5-(8-Methyl-2,6-bis(trifluoromethyl)-[1,2,4]triazolo[1,5-a]pyridin-5-yl)-2-oxoindoline-7-carbonitrile], with 3.98 nM.
Regarding `Cc1cc(C(F)F)c(-c2cc(Cl)c3[nH]ncc3c2)n2nc(C(F)(F)F)nc12` [Example 109, 5-(7-Chloro-1H-indazol-5-yl)-6-(difluoromethyl)-8-methyl-2-(trifluoromethyl)-[1,2,4]triazolo[1,5-a]pyridine], the pIC50 turned out to be 9.6.
For the molecule `Cc1cc(C(F)F)c(-c2cc(Cl)c3c(c2)CC(=O)N3)n2nc(C(F)(F)F)nc12` [Example 110, 7-Chloro-5-(6-(difluoromethyl)-8-methyl-2-(trifluoromethyl)-[1,2,4]triazolo[1,5-a]pyridin-5-yl)indolin-2-one], the IC50 is 0.794 nM.
Take `Cc1cc(-c2c(C(F)F)cc(C)c3nc(C(F)(F)F)nn23)cc2cn[nH]c12` [Example 111, 6-(Difluoromethyl)-8-methyl-5-(7-methyl-1H-indazol-5-yl)-2-(trifluoromethyl)-[1,2,4]triazolo[1,5-a]pyridine]: the IC50 is 0.794 nM.
As for `Cc1cc(C(F)F)c(-c2cc(Cl)c3[nH]ncc3c2)n2nc(C3CC3)nc12` [Example 112, 5-(7-Chloro-1H-indazol-5-yl)-2-cyclopropyl-6-(difluoromethyl)-8-methyl-[1,2,4]triazolo[1,5-a]pyridine], the IC50 is 0.1 nM.
In the case of `Cc1cc(C(F)F)c(-c2cc(Cl)c3c(c2)CC(=O)N3)n2nc(C3CC3)nc12` [Example 113, 7-Chloro-5-(2-cyclopropyl-6-(difluoromethyl)-8-methyl-[1,2,4]triazolo[1,5-a]pyridin-5-yl)indolin-2-one], the IC50 is 0.316 nM.
As for `Cc1cc(-c2c(C(F)F)cc(C)c3nc(C4CC4)nn23)cc2cn[nH]c12` [Example 114, 2-Cyclopropyl-6-(difluoromethyl)-8-methyl-5-(7-methyl-1H-indazol-5-yl)-[1,2,4]triazolo[1,5-a]pyridine], the IC50 is 0.398 nM.
Same read-out and setting: then `CCc1nc2c(C)cc(C(F)F)c(-c3cc(Cl)c4[nH]ncc4c3)n2n1` [Example 115, 5-(7-Chloro-1H-indazol-5-yl)-6-(difluoromethyl)-2-ethyl-8-methyl-[1,2,4]triazolo[1,5-a]pyridine], with 2 nM.
Regarding `Cc1nc2c(C)cc(C(F)(F)F)c(-c3cc(Cl)c4[nH]ncc4c3)n2n1` [Example 116, 5-(7-Chloro-1H-indazol-5-yl)-2,8-dimethyl-6-(trifluoromethyl)-[1,2,4]triazolo[1,5-a]pyridine], the IC50 was 2.51 nM.
Take `CCOc1nc2c(C)cc(C(F)(F)F)c(-c3cc(Cl)c4[nH]ncc4c3)n2n1` [Example 117, 5-(7-Chloro-1H-indazol-5-yl)-2-ethoxy-8-methyl-6-(trifluoromethyl)-[1,2,4]triazolo[1,5-a]pyridine]: the IC50 was 2.51 nM.
Take `FC(F)(F)c1ccc2cc(C3CC3)nn2c1-c1cc(Cl)c2[nH]ncc2c1` [Example 118, 7-Chloro-5-(2-cyclopropyl-6-(trifluoromethyl)pyrazolo[1,5-a]pyridin-7-yl)-1H-indazole]: the pIC50 stood at 10.2.
With `Cc1cc(-c2c(C(F)F)ccc3cc(C(F)(F)F)nn23)cc2c1NC(=O)C2` [Example 119, 5-[6-(Difluoromethyl)-2-(trifluoromethyl)pyrazolo[1,5-a]pyridin-7-yl]-7-methyl-indolin-2-one], the IC50 was 0.0501 nM.
With `FC(F)c1ccc2cc(C(F)(F)F)nn2c1-c1cc(Cl)c2[nH]ncc2c1` [Example 120, 7-(7-Chloro-1H-indazol-5-yl)-6-(difluoromethyl)-2-(trifluoromethyl)pyrazolo[1,5-a]pyridine], the IC50 was 0.0158 nM.
In the case of `Cc1cc(-c2c(C(F)F)ccc3cc(C(F)(F)F)nn23)cc2cn[nH]c12` [Example 121, 6-(Difluoromethyl)-7-(7-methyl-1H-indazol-5-yl)-2-(trifluoromethyl)pyrazolo[1,5-a]pyridine], the IC50 was 0.0251 nM.
Regarding `Cc1cc(-c2c(C(F)F)cc(C)c3cc(C(F)(F)F)nn23)cc2c1NC(=O)C2` [Example 122, 5-[6-(Difluoromethyl)-4-methyl-2-(trifluoromethyl)pyrazolo[1,5-a]pyridin-7-yl]-7-methyl-indolin-2-one], the IC50 was 0.0501 nM.
Regarding `Cc1cc(-c2c(C(F)F)cc(C)c3cc(C(F)(F)F)nn23)cc2cn[nH]c12` [Example 123, 6-(Difluoromethyl)-4-methyl-7-(7-methyl-1H-indazol-5-yl)-2-(trifluoromethyl)pyrazolo[1,5-a]pyridine], the 50% inhibitory concentration (IC50) was 0.126 nM.
Turning to `Cc1cc(C(F)F)c(-c2cc(Cl)c3c(c2)CC(=O)N3)n2nc(C(F)(F)F)cc12` [Example 124, 7-Chloro-5-[6-(difluoromethyl)-4-methyl-2-(trifluoromethyl)pyrazolo[1,5-a]pyridin-7-yl]indolin-2-one], the IC50 is 0.251 nM.
`Cc1cc(C(F)F)c(-c2cc(Cl)c3[nH]ncc3c2)n2nc(C(F)(F)F)cc12` [Example 125, 7-(7-Chloro-1H-indazol-5-yl)-6-(difluoromethyl)-4-methyl-2-(trifluoromethyl)pyrazolo[1,5-a]pyridine]: the half-maximal inhibitory concentration (IC50) is 0.1 nM.

Values taken from patent US10087185B2 (Janssen Pharmaceutica NV, priority 2016, dated 2018).
